Source: EP1029544A1, “INTRA-CANCER-CELL NUCLEASE ACTIVATOR” (Nippon Shinyaku Co., Ltd., priority 1997, dated 1999)
≈ marks a conversion by molar mass, not a printed value.

Tests used:
Assay in all cases: Growth inhibitory effect (in vitro), MTT method
Format in all cases: cell-based
HeLaS3 = conditions: Homo sapiens, HeLa S3, 72 h; HeLaS3, Cervix epitheloid carcinoma; 3 days
Procedure: (§1) A 96-well plate was seeded with cells at a density of 10^4 cells/well. On the following day, the activator of Example 4 or adriamycin was added and the cultivation was continued. After 3 days the viable cell count was determined by the MTT method.

T47D = conditions: Homo sapiens, 72 h, Breast ductal carchoma, 3 days
Procedure: as §1

CHO-K1 = conditions: Cricetulus griseus, 72 h; CHO-K1, Chinese hamster ovary cell (non-cancer); 3 days
Procedure: as §1

McA-8994 = conditions: 72 h; McA-8994, Rat hepatoma; 3 days
Procedure: as §1

MDA-MB-453 = conditions: Homo sapiens, 72 h; MDA-MB-453, Breast carcinoma; 3 days
Procedure: as §1

WRL68 = conditions: 72 h; WRL68, Human embryo liver cell (non-cancer); 3 days
Procedure: as §1

PC-3 = conditions: Homo sapiens, 72 h; PC-3, Prostate adenocarcinoma; 3 days
Procedure: as §1

HT1376 = conditions: Homo sapiens, HT-1376, 72 h; HT1376, Bladder carcinoma; 3 days
Procedure: as §1

NCTCclone1469 = conditions: 72 h; NCTCclone1469, Mouse normal liver cell (non-cancer); 3 days
Procedure: as §1

RD = conditions: Homo sapiens, 72 h, Rhabdomyosarcoma, 3 days
Procedure: as §1

MDA-MB-134VI = conditions: Homo sapiens, 72 h, Breast ductal carcinoma, 3 days
Procedure: as §1

COLO320DM = conditions: Homo sapiens, COLO 320DM, 72 h, Colon adenocarcinoma, 3 days
Procedure: as §1

NIH/3T3 = conditions: NIH3T3, 72 h; NIH/3T3, Mouse embryonic cell (non-cancer); 3 days
Procedure: as §1

A673 = conditions: Homo sapiens, 72 h; A673, Rhabdomyosarcoma; 3 days
Procedure: as §1

A546 = conditions: 72 h; A546, Lung carcinoma; 3 days
Procedure: as §1

AsPC-1 = conditions: Homo sapiens, ASPC1, 72 h; AsPC-1, Pancreatic adenocarcinoma; 3 days
Procedure: as §1

PLC/PRF/5 = conditions: Homo sapiens, 72 h; PLC/PRF/5, Hepatoma; 3 days
Procedure: as §1

DU145 = conditions: Homo sapiens, DU-145, 72 h; DU145, Prostate carcinoma; 3 days
Procedure: as §1

SAOS2 = conditions: Homo sapiens, SAOS-2, 72 h; SAOS2, Osteogenic sarcoma; 3 days
Procedure: as §1

KM12-HX = conditions: Homo sapiens, 72 h, Colon cancer, 3 days
Procedure: as §1

NRK-49F = conditions: 72 h, Rat normal kidney fibroblast (non-cancer), 3 days
Procedure: as §1

LoVo = conditions: Homo sapiens, 72 h, Colon adenocarcinoma, 3 days
Procedure: as §1

OVCAR3 = conditions: Homo sapiens, OVCAR-3, 72 h; OVCAR3, Ovary adenocarcinoma; 3 days
Procedure: as §1

HT144 = conditions: Homo sapiens, HT-144, 72 h; HT144, Malignant melanoma; 3 days
Procedure: as §1

TSU-PR-1 = conditions: Homo sapiens, TSU-Pr1, 72 h; TSU-PR-1, Prostate cancer; 3 days
Procedure: as §1

BALB/c CL.7 = conditions: 72 h; BALB/c CL.7, Mouse normal fibroblast (non-cancer); 3 days
Procedure: as §1

BNL CL.2 = conditions: 72 h; BNL CL.2, Mouse normal liver cell (non-cancer); 3 days
Procedure: as §1

Malme 3M = conditions: Homo sapiens, 72 h, Malignant melanoma, 3 days
Procedure: as §1

SK-OV-3 = conditions: Homo sapiens, 72 h; SK-OV-3, Ovary adenocarcinoma; 3 days
Procedure: as §1

Ls174T = conditions: Homo sapiens, 72 h, Colon adenocarcinoma, 3 days
Procedure: as §1

SK-BR-3 = conditions: Homo sapiens, 72 h; SK-BR-3, Breast adenocarcinoma; 3 days
Procedure: as §1

SW480 = conditions: Homo sapiens, 72 h; SW480, Colon adenocarcinoma; 3 days
Procedure: as §1

Swiss/3T3 = conditions: 72 h; Swiss/3T3, Mouse embryonic cell (non-cancer); 3 days
Procedure: as §1

WM-266-4 = conditions: Homo sapiens, 72 h; WM-266-4, Melanoma; 3 days
Procedure: as §1

SK-HEP-1 = conditions: Homo sapiens, SK-HEP1, 72 h; SK-HEP-1, Liver adenocarcinoma; 3 days
Procedure: as §1

A431 = conditions: Homo sapiens, A-431, 72 h; A431, Epidemoid carcinoma; 3 days
Procedure: as §1

G-361 = conditions: Homo sapiens, 72 h; G-361, Malignant melanoma; 3 days
Procedure: as §1

CALU6 = conditions: Homo sapiens, Calu-6, 72 h; CALU6, Lung anaplastic carcinoma; 3 days
Procedure: as §1

A-204 = conditions: Homo sapiens, A204, 72 h; A-204, Rhabdomyosarcoma; 3 days
Procedure: as §1

HCC-T = conditions: 72 h, Liver cancer, 3 days
Procedure: as §1

BHK-21 = conditions: Mesocricetus auratus, 72 h; BHK-21, Hamster kidney cell (non-cancer); 3 days
Procedure: as §1

Hs0578T = conditions: 72 h, Breast ductal carcinoma, 3 days
Procedure: as §1

MDA-MB-468 = conditions: Homo sapiens, 72 h; MDA-MB-468, Breast adenocarcinoma; 3 days
Procedure: as §1

Clone9 = conditions: 72 h; Clone9, Rat normal liver cell (non-cancer); 3 days
Procedure: as §1

RT4 = conditions: Homo sapiens, RT-4, 72 h; RT4, Bladder papillima; 3 days
Procedure: as §1

BALB/c3T3 cloneA31 = conditions: 72 h; BALB/c3T3 cloneA31, Mouse embryonic cell (non-cancer); 3 days
Procedure: as §1

NC65 = conditions: 72 h; NC65, Pancreatic cancer; 3 days
Procedure: as §1

KB = conditions: Homo sapiens, 72 h, Oral epidemiod carcinoma, 3 days
Procedure: as §1

IC50 (HeLaS3): 0.049 µg/mL (≈ 0.0902 µM) | IC50 (T47D): 0.114 µg/mL (≈ 0.21 µM) | IC50 (MDA-MB-453): 0.143 µg/mL (≈ 0.263 µM) | IC50 (PC-3): > 1 µg/mL | IC50 (HT1376): 0.217 µg/mL (≈ 0.399 µM) | IC50 (MDA-MB-134VI): 0.081 µg/mL (≈ 0.149 µM) | IC50 (COLO320DM): 0.838 µg/mL (≈ 1.54 µM) | IC50 (AsPC-1): 0.8 µg/mL (≈ 1.47 µM) | IC50 (DU145): 0.236 µg/mL (≈ 0.434 µM) | IC50 (LoVo): 0.065 µg/mL (≈ 0.12 µM) | IC50 (OVCAR3): > 1 µg/mL | IC50 (HT144): 0.219 µg/mL (≈ 0.403 µM) | IC50 (SK-OV-3): 0.252 µg/mL (≈ 0.464 µM) | IC50 (SK-BR-3): 0.078 µg/mL (≈ 0.144 µM) | IC50 (SW480): 0.097 µg/mL (≈ 0.178 µM) | IC50 (SK-HEP-1): 0.302 µg/mL (≈ 0.556 µM) | IC50 (A431): 0.052 µg/mL (≈ 0.0957 µM) | IC50 (CALU6): 0.282 µg/mL (≈ 0.519 µM) | IC50 (HCC-T): 0.076 µg/mL (≈ 0.14 µM) | IC50 (MDA-MB-468): 0.057 µg/mL (≈ 0.105 µM) | IC50 (KB): 0.025 µg/mL (≈ 0.046 µM)
Compound: COc1cccc2c1C(=O)c1c(O)c3c(c(O)c1C2=O)C[C@@](O)(C(=O)CO)C[C@@H]3O[C@H]1C[C@H](N)[C@H](O)[C@H](C)O1 [Adriamycin]
IC50 (CHO-K1): 0.02 µg/mL (≈ 0.0368 µM) | IC50 (McA-8994): > 1 µg/mL | IC50 (WRL68): 0.283 µg/mL (≈ 0.521 µM) | IC50 (NCTCclone1469): 0.101 µg/mL (≈ 0.186 µM) | IC50 (RD): 0.208 µg/mL (≈ 0.383 µM) | IC50 (NIH/3T3): 0.102 µg/mL (≈ 0.188 µM) | IC50 (A673): 0.104 µg/mL (≈ 0.191 µM) | IC50 (A546): 0.831 µg/mL (≈ 1.53 µM) | IC50 (PLC/PRF/5): 0.042 µg/mL (≈ 0.0773 µM) | IC50 (SAOS2): 0.075 µg/mL (≈ 0.138 µM) | IC50 (KM12-HX): 0.13 µg/mL (≈ 0.239 µM) | IC50 (NRK-49F): > 1 µg/mL | IC50 (TSU-PR-1): 0.572 µg/mL (≈ 1.05 µM) | IC50 (BALB/c CL.7): 0.117 µg/mL (≈ 0.215 µM) | IC50 (BNL CL.2): 0.398 µg/mL (≈ 0.732 µM) | IC50 (Malme 3M): 0.114 µg/mL (≈ 0.21 µM) | IC50 (Ls174T): 0.096 µg/mL (≈ 0.177 µM) | IC50 (Swiss/3T3): 0.903 µg/mL (≈ 1.66 µM) | IC50 (WM-266-4): 0.206 µg/mL (≈ 0.379 µM) | IC50 (G-361): 0.146 µg/mL (≈ 0.269 µM) | IC50 (A-204): 0.076 µg/mL (≈ 0.14 µM) | IC50 (BHK-21): 0.047 µg/mL (≈ 0.0865 µM) | IC50 (Hs0578T): 0.76 µg/mL (≈ 1.4 µM) | IC50 (Clone9): 0.228 µg/mL (≈ 0.419 µM) | IC50 (RT4): 0.058 µg/mL (≈ 0.107 µM) | IC50 (BALB/c3T3 cloneA31): 0.427 µg/mL (≈ 0.786 µM) | IC50 (NC65): 0.073 µg/mL (≈ 0.134 µM)
